According to US10597364B2, “Anthelmintic compounds, compositions and method of using thereof” (priority 2015, dated 2020):
Where two headings read alike, the source gives them in different places.

System: microfilaria of Dirofilaria immitis
Test: Method C: microfilaria of Dirofilaria immitis motility screen
Format: cell-based
Details: read-out: inhibition of the microfilaria's motility

Row | Structure (SMILES) | inhibition at 5 ppm (24 h) | further results
1 | O=[N+]([O-])c1ccc(N[C@H]2CC[C@H](Oc3ccnc(N4CCN(Cc5ccc(C(F)(F)F)cc5)CC4)c3)CC2)cc1C(F)(F)F [Compound 56] | ≥ 90% | inhibition at 1 ppm (24 h): ≥ 90%
2 | CC(C)(C)NC(=S)N1CCN(c2cncc(O[C@H]3CC[C@H](Nc4ccc([N+](=O)[O-])c(C(F)(F)F)c4)CC3)c2)CC1 [Compound 91] | ≥ 90% | –
3 | O=[N+]([O-])c1ccc(N[C@H]2CC[C@H](Oc3cncc(N4CCN(C(=S)Nc5ccc(F)cc5)CC4)c3)CC2)cc1C(F)(F)F [Compound 92] | ≥ 90% | –
4 | CC(C)(C)NC(=S)N1CCN(c2ccnc(O[C@H]3CC[C@H](Nc4ccc([N+](=O)[O-])c(C(F)(F)F)c4)CC3)c2)CC1 [Compound 93] | ≥ 90% | –
5 | CCCNC(=S)N1CCN(c2ccnc(O[C@H]3CC[C@H](Nc4ccc([N+](=O)[O-])c(C(F)(F)F)c4)CC3)c2)CC1 [Compound 99] | ≥ 90% | inhibition at 1 ppm (24 h): ≥ 90%
6 | O=[N+]([O-])c1ccc(N[C@H]2CC[C@H](Oc3ccnc(N4CCN(CC(F)(F)F)CC4)c3)CC2)cc1C(F)(F)F [Compound 108] | ≥ 90% | –
7 | CCOC(=O)N1CCN(c2cccc(O[C@H]3CC[C@H](Nc4ccc([N+](=O)[O-])c(C(F)(F)F)c4)CC3)n2)CC1 [Compound 110] | ≥ 90% | –
8 | O=C(Nc1ccc(F)cc1)N1CCN(c2ccnc(O[C@H]3CC[C@H](Nc4ccc([N+](=O)[O-])c(C(F)(F)F)c4)CC3)c2)CC1 [Compound 112] | – | inhibition at 10 µM (24 h): ≥ 90%
9 | CCC(=O)N1CCN(c2cccc(O[C@H]3CC[C@H](Nc4ccc([N+](=O)[O-])c(C(F)(F)F)c4)CC3)n2)CC1 [Compound 115] | ≥ 90% | –
10 | CC(C)(C)NC(=S)N1CCN(c2cccc(O[C@H]3CC[C@H](Nc4ccc([N+](=O)[O-])c(C(F)(F)F)c4)CC3)n2)CC1 [Compound 116] | ≥ 90% | –
11 | CCCNC(=S)N1CCN(c2cncc(O[C@H]3CC[C@H](Nc4ccc([N+](=O)[O-])c(C(F)(F)F)c4)CC3)c2)CC1 [Compound 119] | ≥ 90% | –
12 | CCCNC(=S)N1CCN(c2cccc(O[C@H]3CC[C@H](Nc4ccc([N+](=O)[O-])c(C(F)(F)F)c4)CC3)n2)CC1 [Compound 120] | ≥ 90% | –
13 | CC(C)(C)OC(=O)N1CCN(c2ncccc2O[C@H]2CC[C@H](Nc3ccc([N+](=O)[O-])c(C(F)(F)F)c3)CC2)CC1 [Compound 121] | ≥ 90% | –
14 | CCNC(=S)N1CCN(c2cncc(O[C@H]3CC[C@H](Nc4ccc([N+](=O)[O-])c(C(F)(F)F)c4)CC3)c2)CC1 [Compound 124] | ≥ 90% | –
15 | CCNC(=S)N1CCN(c2cccc(O[C@H]3CC[C@H](Nc4ccc([N+](=O)[O-])c(C(F)(F)F)c4)CC3)n2)CC1 [Compound 125] | ≥ 90% | –
16 | CCCNC(=O)N1CCN(c2cccc(O[C@H]3CC[C@H](Nc4ccc([N+](=O)[O-])c(C(F)(F)F)c4)CC3)n2)CC1 [Compound 127, N-propyl-4-(6-[[4-[[4-nitro-3-(trifluoromethyl)phenyl]amino]cyclohexyl]oxy]pyridin-2-yl)piperazine-1-carboxamide] | – | inhibition at 5 ppm (5 ppm, 24 hours): ≥ 90%
17 | CNC(=S)N1CCN(c2cncc(O[C@H]3CC[C@H](Nc4ccc([N+](=O)[O-])c(C(F)(F)F)c4)CC3)c2)CC1 [Compound 128] | ≥ 90% | –
18 | CNC(=S)N1CCN(c2ccnc(O[C@H]3CC[C@H](Nc4ccc([N+](=O)[O-])c(C(F)(F)F)c4)CC3)c2)CC1 [Compound 129] | ≥ 90% | –
19 | CNC(=S)N1CCN(c2cccc(O[C@H]3CC[C@H](Nc4ccc([N+](=O)[O-])c(C(F)(F)F)c4)CC3)n2)CC1 [Compound 130] | ≥ 90% | –
20 | CCNC(=O)N1CCN(c2cccc(O[C@H]3CC[C@H](Nc4ccc([N+](=O)[O-])c(C(F)(F)F)c4)CC3)n2)CC1 [Compound 131] | ≥ 90% | –
21 | CN(c1ccc([N+](=O)[O-])c(C(F)(F)F)c1)[C@H]1CC[C@H](Oc2ccnc(N3CCN(C(=O)NC(C)(C)C)CC3)c2)CC1 [Compound 132] | – | inhibition at 10 µM (10 μM, 24 hours): ≥ 90%
